# Test results: PMC3004258, “Structure of the inhibitor complex of old yellow enzyme from Trypanosoma cruzi” (Journal of Synchrotron Radiation, 2010)
# Molecular target: T1, TcOYE (old yellow enzyme from Trypanosoma cruzi; PGF2alpha synthase) (Trypanosoma cruzi, UniProt Q8I6L9)
# T1 construct: gene TcPGFS; recombinant, overexpressed in E. coli and purified; 2 molecules per asymmetric unit; residues up to at least 379
# T1 sequence (Q8I6L9 1-379): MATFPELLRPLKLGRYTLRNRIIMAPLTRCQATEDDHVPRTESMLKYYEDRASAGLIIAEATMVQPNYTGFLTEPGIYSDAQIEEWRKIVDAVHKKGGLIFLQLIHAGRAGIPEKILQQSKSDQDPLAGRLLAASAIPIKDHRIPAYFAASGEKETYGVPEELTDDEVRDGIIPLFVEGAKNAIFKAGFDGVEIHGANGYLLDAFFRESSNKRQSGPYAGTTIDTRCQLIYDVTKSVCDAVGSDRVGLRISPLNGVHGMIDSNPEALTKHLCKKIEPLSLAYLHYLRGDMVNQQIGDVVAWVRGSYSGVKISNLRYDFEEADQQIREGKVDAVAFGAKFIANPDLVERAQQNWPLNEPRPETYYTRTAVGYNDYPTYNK
# Assay: X-ray crystallography, […] Å
# Format: binding
# Conditions: TcOYE/FMN binary complex; prosthetic group at C-terminal ends of barrel strands
compound,measurement,value
Cc1cc2nc3c(=O)[nH]c(=O)nc-3n(C[C@H](O)[C@H](O)[C@H](O)COP(=O)(O)O)c2cc1C [FMN],"X-ray crystallography, 1.7 Å",The structure of TcOYE/FMN binary complex was determined by molecular replacement methods
